Reference: PMC4746591, “Internal (His)6-tagging delivers a fully functional hetero-oligomeric class II chaperonin in high yield” (Scientific Reports, 2016)

How the values were obtained:
[1] = target: T1, (His)6-tagged α8/β8 thermosome (Ht thermosome, αK144Ht) (Thermoplasma acidophilum, UniProt P48424+P48425); experiment: coupled enzymatic steady-state ATPase assay; format: biochemical; conditions: 55 °C; tighter site of a two-site fit; read-out: KM1
T1 construct: gene thsA; full-length alpha with internal His6 inserted after Lys144, untagged beta; co-expressed in E. coli; α8/β8 hexadecamer, about 960 kDa

[2] = target: T2, thermosome α subunit with a (His)6-tag downstream Lys144 (αK144Ht) (Thermoplasma acidophilum, UniProt P48424 1-545); experiment: SEC; peak from the affinity column run on Superose 6 (or HiLoad 26/600 Superdex 200) in 25 mM TrisHCl, 150 mM NaCl, 5 mM EDTA pH 7.5, room temperature; single peak of about 960 kDa to 1 MDa (hexadecamer); SDS-PAGE of the peak; subunits co-expressed and co-purified; conditions: both partners purified
T2 construct: thermosome α subunit, Thermoplasma acidophilum, P48424; synthetic gene (Invitrogen) with six histidines inserted downstream of Lys144, in the loop between beta sheet β4 and alpha helix α6; Eight copies stand in the α8/β8 hexadecamer; also called K144-(His)6 α-subunit; (His)6-tagged α subunit; source: E. coli BL21(DE3) Codon Plus-RIL, co-expressed with the β subunit from the construct …
T2 sequence: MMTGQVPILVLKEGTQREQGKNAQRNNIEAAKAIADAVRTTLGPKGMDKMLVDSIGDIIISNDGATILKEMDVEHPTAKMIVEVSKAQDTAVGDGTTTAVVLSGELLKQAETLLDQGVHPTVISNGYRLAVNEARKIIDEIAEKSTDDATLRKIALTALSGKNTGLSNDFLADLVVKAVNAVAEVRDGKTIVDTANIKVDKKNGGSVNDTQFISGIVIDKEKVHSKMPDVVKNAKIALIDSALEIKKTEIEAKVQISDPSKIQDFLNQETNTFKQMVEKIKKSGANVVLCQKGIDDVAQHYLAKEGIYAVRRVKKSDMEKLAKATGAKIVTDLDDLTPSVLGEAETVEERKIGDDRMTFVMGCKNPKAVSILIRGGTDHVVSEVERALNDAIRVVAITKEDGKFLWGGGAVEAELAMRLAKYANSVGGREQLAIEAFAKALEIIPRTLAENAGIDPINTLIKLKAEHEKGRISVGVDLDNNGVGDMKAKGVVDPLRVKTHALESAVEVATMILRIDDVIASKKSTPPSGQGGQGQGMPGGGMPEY

| Km [1] | stoichiometry N [2] | Molecule |
| --- | --- | --- |
| 15 µM | – | Nc1ncnc2c1ncn2[C@@H]1O[C@H](COP(=O)(O)OP(=O)(O)OP(=O)(O)O)[C@@H](O)[C@H]1O [ATP] |
| – | 1 α:β ratio | thermosome β subunit (natural protein, Thermoplasma acidophilum, thermosome β subunit, Thermoplasma acidophilum, P48425; untagged; Eight copies stand in the α8/β8 hexadecamer; also called un-tagged β-subunit; source: E. coli BL21(DE3) Codon Plus-RIL, co-expressed in tandem with the α subunit (αK144HTTherm or pETTherm α/β); in lysate, then purified with the complex) MIAGQPIFILKEGTKRESGKDAMKENIEAAIAISNSVRSSLGPRGMDKMLVDSLGDIVITNDGVTILKEMDVEHPAAKMMVEVSKTQDSFVGDGTTTAVIIAGGLLQQAQGLINQNVHPTVISEGYRMASEEAKRVIDEISTKIGADEKALLLKMAQTSLNSKSASVAKDKLAEISYEAVKSVAELRDGKYYVDFDNIQVVKKQGGAIDDTQLINGIIVDKEKVHPGMPDVVKDAKIALLDAPLEIKKPEFDTNLRIEDPSMIQKFLAQEENMLREMVDKIKSVGANVVITQKGIDDMAQHYLSRAGIYAVRRVKKSDMDKLAKATGASIVSTIDEISSSDLGTAERVEQVKVGEDYMTFVTGCKNPKAVSILVRGETEHVVDEMERSITDSLHVVASALEDGAYAAGGGATAAEIAFRLRSYAQKIGGRQQLAIEKFADAIEEIPRALAENAGLDPIDILLKLRAEHAKGNKTYGINVFTGEIEDMVKNGVIEPIRVGKQAIESATEAAIMILRIDDVIATKSSSSSSNPPKSGSSSESSED |
